Reference: article PMC6328430, “Radiation dosimetry of [^68Ga]PSMA-11 in low-risk prostate cancer patients” (EJNMMI Physics, 2019)
Like-named read-outs stand apart in the source and are kept apart here.

Key:
[1] = cited from earlier work
[2] = Blood activity clearance from venous blood samples (bi-exponential fit); assay type: in vivo, human
Protocol: Venous blood samples were drawn at 45 min, 85 min, 175 min, and 245 min post-injection. The activity concentrations of these samples were measured in the abovementioned well counter. No metabolite analysis of the samples was performed, since this is beyond the scope of this dosimetry study.
(§1) The uptake was fitted to a bi-exponential or mono-exponential function of time post-injection using the software SAAM II (The Epsilon Group, Charlottesville, VA, USA). This function is used to calculate the time-integrated activity coefficient (TIAC), i.e., total number of decays per administered activity. […] The cumulated activity in the urinary bladder was calculated in a similar way, using measured data for urine plus bladder content. ICRP uses 3.5-h voiding interval for calculating absorbed doses from radiopharmaceuticals; thus, the activity in the bladder is zeroed at 3.5 and 7 h post-injection, before calculating the cumulated activity in accordance with Eq. 2.
TIACs for the organs used in the dose calculations can be seen in Table 1. […] The fitted blood curve was calculated on pooled normalized data and forced through the point 100% at time zero.

[3] = Absorbed organ dose and effective dose calculation (IDAC-Dose 2.1, ICRP 133/103; Monte Carlo for eye lenses); assay type: in vivo, human
Excerpt: (§2) Volumes of interest (VOIs) were delineated for the kidneys, liver, lungs, spleen, salivary glands, and total body by a medical physicist and a radiologist using RayStation (RaySearch Laboratories, Stockholm, Sweden). Using the MICE Toolkit (Nonpi Medical AB, Umea, Sweden), the median VOI activity-concentration (Cmedian(t)) was extracted and used to calculate the fraction injected activity for each imaging session. For a specific VOI, the retention, U(t), in an organ with mass M [g], expressed as fraction of injected activity, is calculated as:1 Ut=Cmediant×M/A0 where A0 is the administered activity [Bq] and t is the time after administration. […] The remaining activity was assumed to be homogeneously distributed in the rest of the body, and the remaining activity in the body could therefore be calculated by subtracting the activities in the specific organ, blood, urinary bladder content, and urine from the decay-corrected administered activity.
as §1
The absorbed dose to the organs was calculated using the software IDAC-Dose 2.1 [22] which uses specific absorbed fractions for photons and electron from ICRP Publication 133 [19], […]
To calculate the dose to the lacrimal glands, spherical shape was assumed, with a mass of 0.7 g each, using the “sphere module” in IDAC-Dose 2.1. […] The lens of the eyes is a target organ in ICRP Publication 133 [19]; however, the lacrimal glands are not identified as source organs in the ICRP phantoms and an absorbed fraction is not presented in this report. Monte Carlo methods were therefore used to calculate absorbed fractions using the ICRP/ICRU voxel phantom for an adult. For the image activity concentration, the highest voxel was used, instead of the median. The reason for this is that the small size of the glands results in a significant “partial volume effect” [26].

[4] = cited from earlier work; remark: listed apart in the source
[5] = PET/CT organ uptake and time-integrated activity coefficients after i.v. [^68Ga]PSMA-11; assay type: in vivo, human
Protocol: The PET/CT scanning was performed at the University Hospital of Umeå on a Discovery 690 [18] The first session, aimed to depict the fast tracer distribution, consisted of three head-to-thigh scans commencing at times 0, 10, and 20 min post-injection, followed by a head-to-toe whole-body scan approximately 30 min post-injection. The remaining three acquisitions were all head-to-toe scans, commencing at 90 min, 180 min, and 255 min post-injection. CT scans were acquired with 120 kV, 10 mA, 0.5 s/revolution, and 2.5-mm slice thickness, except for the whole-body scan at the first session which was acquired with 30 mA (Fig. 1) to provide adequate anatomical information. All PET scans were acquired using time-of-flight mode, with 60 s per bed position, and 11 slices bed overlap. PET images, corrected for attenuation and scatter, were reconstructed using the scanner implementation of the 3D iterative ordered subset expectation maximization (OSEM) reconstruction including time-of-flight (named VuePoint HD ViP) with 2 iterations, 24 subsets, 6.4-mm post-filter, and a 70-cm field-of-view, yielding a 128 × 128 matrix (5.5 × 5.5 × 3.27 mm^3 voxels). PET images were decay-corrected to start of each scan.
Urine was collected up to 4 h post-injection, and the total voided volume was weighed. From each voided volume, a 1-mL sample was weighed and radioactivity was measured using a well counter (NaI-scintillator), and the activity concentration in Bq/mL was calculated. The activity concentration and voided volume were used to calculate the total voided activity.
as §2, §1

[6] = bi-exponential fit, pooled normalized data
[7] = six participants, sphere of 0.7 g
[8] = median of six patients, ICRP/ICRU voxel phantom organ mass

SMILES: C[11C](=O)O [[^11C]Acetate]
- Effective dose [1]: 0.0049 mSv/MBq

SMILES: C[N+](C)(C[18F])CCO [[^18F]Choline]
- Effective dose [1]: 0.01 mSv/MBq

SMILES: O=C([O-])CN(CCN(CC(=O)[O-])Cc1cc(CCC(=O)NCCCCCC(=O)NCCCC[C@H](NC(=O)N[C@@H](CCC(=O)O)C(=O)O)C(=O)O)ccc1[O-])Cc1cc(CCC(=O)O)ccc1[O-].[68Ga+3].[OH3+] [[^68Ga]PSMA-11, ^68Ga-labeled Glu-NH-CO-NH-Lys(Ahx)-HBED-CC]
- Biological half-life in blood, fast component [2, 6]: 6.5 min
- Biological half-life in blood, slow component [2, 6]: 4.4 h
- Fraction of blood activity cleared with the 6.5 min half-life ([2]; fast component): 91%
- Fraction of blood activity cleared with the 4.4 h half-life ([2]; slow component): 9%
- Liver dose factor, conventional method ([3]; TIAC derived with measured organ volumes (liver mass 800–1200 g)): 0.034 mGy/MBq
- Effective dose per administration ([3]; administered activity of 2 MBq/kg to a person weighting 80 kg): 3.5 mSv
- Effective dose ([3]; calculated for comparison using ICRP Publication 60): 0.022 mSv/MBq
- Effective dose ([3]; median, ICRP Publication 103, male component only): 0.022 mSv/MBq
- Absorbed dose coefficient, Colon wall, Median ([3]; six participants): 0.014 mGy/MBq
- Absorbed dose coefficient, Colon wall, Range ([3]; six participants): 0.012–0.014 mGy/MBq
- Absorbed dose coefficient, Endosteum, Median ([3]; six participants): 0.011 mGy/MBq
- Absorbed dose coefficient, Endosteum, Range ([3]; six participants): 0.0095–0.011 mGy/MBq
- Absorbed dose coefficient, Esophagus, Median ([3]; six participants): 0.014 mGy/MBq
- Absorbed dose coefficient, Esophagus, Range ([3]; six participants): 0.011–0.015 mGy/MBq
- Absorbed dose coefficient, Kidneys, Median ([3]; six participants): 0.24 mGy/MBq
- Absorbed dose coefficient, Kidneys, Range ([3]; six participants): 0.20–0.28 mGy/MBq
- Absorbed dose coefficient, Liver, Median ([3]; six participants): 0.053 mGy/MBq
- Absorbed dose coefficient, Liver, Range ([3]; six participants): 0.038–0.071 mGy/MBq
- Absorbed dose coefficient, Lungs, Median ([3]; six participants): 0.016 mGy/MBq
- Absorbed dose coefficient, Lungs, Range ([3]; six participants): 0.013–0.017 mGy/MBq
- Absorbed dose coefficient, Red bone marrow, Median ([3]; six participants): 0.015 mGy/MBq
- Absorbed dose coefficient, Red bone marrow, Range ([3]; six participants): 0.014–0.015 mGy/MBq
- Absorbed dose coefficient, Salivary glands, Median ([3]; six participants): 0.089 mGy/MBq
- Absorbed dose coefficient, Salivary glands, Range ([3]; six participants): 0.074–0.15 mGy/MBq
- Absorbed dose coefficient, Skin, Median ([3]; six participants): 0.0067 mGy/MBq
- Absorbed dose coefficient, Skin, Range ([3]; six participants): 0.0059–0.0069 mGy/MBq
- Absorbed dose coefficient, Spleen, Median ([3]; six participants): 0.046 mGy/MBq
- Absorbed dose coefficient, Spleen, Range ([3]; six participants): 0.030–0.10 mGy/MBq
- Absorbed dose coefficient, Stomach wall, Median ([3]; six participants): 0.015 mGy/MBq
- Absorbed dose coefficient, Stomach wall, Range ([3]; six participants): 0.015–0.017 mGy/MBq
- Absorbed dose coefficient, Testes, Median ([3]; six participants): 0.0087 mGy/MBq
- Absorbed dose coefficient, Testes, Range ([3]; six participants): 0.0074–0.0089 mGy/MBq
- Absorbed dose coefficient, Thyroid, Median ([3]; six participants): 0.010 mGy/MBq
- Absorbed dose coefficient, Thyroid, Range ([3]; six participants): 0.0090–0.010 mGy/MBq
- Absorbed dose coefficient, Urinary bladder wall, Median ([3]; six participants): 0.057 mGy/MBq
- Absorbed dose coefficient, Urinary bladder wall, Range ([3]; six participants): 0.028–0.084 mGy/MBq
- Absorbed dose coefficient, Eye lenses, Median ([3]; six participants, Monte Carlo methods for lacrimal gland contribution): 0.0051 mGy/MBq
- Absorbed dose coefficient, Lacrimal glands, Median [3, 7]: 0.11 mGy/MBq
- Absorbed dose coefficient, Lacrimal glands, Range [3, 7]: 0.043–0.2 mGy/MBq
- Kidney dose ([4]; Afshar-Oromieh et al. ref 15): 0.262 mGy/MBq
- Kidney dose ([4]; Demirci et al. ref 16): 0.246 mGy/MBq
- Lacrimal glands absorbed dose ([4]; unit density sphere model, Demirci et al. ref 16): 0.04 ± 0.008 mGy/MBq
- Accumulation in kidneys ([5]; intravenous injection, PET/CT): 7%
- Accumulation in liver ([5]; intravenous injection, PET/CT): 15%
- Accumulation in salivary glands ([5]; intravenous injection, PET/CT): 0.5%
- Accumulation in spleen ([5]; intravenous injection, PET/CT): 2%
- Liver TIAC, conventional method ([5]; measured organ volumes (liver mass 800–1200 g)): 0.10 h
- Time-integrated activity coefficient, Blood, Median ([5]; median of six patients): 0.27 h
- Time-integrated activity coefficient, Urinary bladder contents, Median ([5]; median of six patients, 3.5-h voiding interval): 0.11 h
- Time-integrated activity coefficient, Kidneys, Median [5, 8]: 0.22 h
- Time-integrated activity coefficient, Liver, Median [5, 8]: 0.23 h
- Time-integrated activity coefficient, Spleen, Median [5, 8]: 0.021 h
- Time-integrated activity coefficient, Salivary glands, Median ([5]; median of six patients, estimated directly from uptake data (Eq. 2)): 0.020 h
- Time-integrated activity coefficient, Lacrimal glands, Median ([5]; median of six patients, highest voxel x factor 2, 0.7 g each): 0.00053 h
- Time-integrated activity coefficient, Remainder, Median ([5]; median of six patients, rest of the body): 0.68 h
- Time-integrated activity coefficient, Blood, P1 ([5]; patient P1): 0.32 h
- Time-integrated activity coefficient, Kidneys, P1 ([5]; patient P1): 0.22 h
- Time-integrated activity coefficient, Lacrimal glands, P1 ([5]; patient P1): 0.00075 h
- Time-integrated activity coefficient, Liver, P1 ([5]; patient P1): 0.26 h
- Time-integrated activity coefficient, Remainder, P1 ([5]; patient P1): 0.51 h
- Time-integrated activity coefficient, Salivary glands, P1 ([5]; patient P1): 0.036 h
- Time-integrated activity coefficient, Spleen, P1 ([5]; patient P1): 0.049 h
- Time-integrated activity coefficient, Urinary bladder contents, P1 ([5]; patient P1): 0.12 h
- Time-integrated activity coefficient, Blood, P2 ([5]; patient P2): 0.26 h
- Time-integrated activity coefficient, Kidneys, P2 ([5]; patient P2): 0.27 h
- Time-integrated activity coefficient, Lacrimal glands, P2 ([5]; patient P2): 0.00055 h
- Time-integrated activity coefficient, Liver, P2 ([5]; patient P2): 0.15 h
- Time-integrated activity coefficient, Remainder, P2 ([5]; patient P2): 0.76 h
- Time-integrated activity coefficient, Salivary glands, P2 ([5]; patient P2): 0.020 h
- Time-integrated activity coefficient, Spleen, P2 ([5]; patient P2): 0.012 h
- Time-integrated activity coefficient, Urinary bladder contents, P2 ([5]; patient P2): 0.094 h
- Time-integrated activity coefficient, Blood, P3 ([5]; patient P3): 0.36 h
- Time-integrated activity coefficient, Kidneys, P3 ([5]; patient P3): 0.19 h
- Time-integrated activity coefficient, Lacrimal glands, P3 ([5]; patient P3): 0.00038 h
- Time-integrated activity coefficient, Liver, P3 ([5]; patient P3): 0.22 h
- Time-integrated activity coefficient, Remainder, P3 ([5]; patient P3): 0.62 h
- Time-integrated activity coefficient, Salivary glands, P3 ([5]; patient P3): 0.021 h
- Time-integrated activity coefficient, Spleen, P3 ([5]; patient P3): 0.017 h
- Time-integrated activity coefficient, Urinary bladder contents, P3 ([5]; patient P3): 0.13 h
- Time-integrated activity coefficient, Blood, P4 ([5]; patient P4): 0.22 h
- Time-integrated activity coefficient, Kidneys, P4 ([5]; patient P4): 0.23 h
- Time-integrated activity coefficient, Lacrimal glands, P4 ([5]; patient P4): 0.00093 h
- Time-integrated activity coefficient, Liver, P4 ([5]; patient P4): 0.23 h
- Time-integrated activity coefficient, Remainder, P4 ([5]; patient P4): 0.78 h
- Time-integrated activity coefficient, Salivary glands, P4 ([5]; patient P4): 0.017 h
- Time-integrated activity coefficient, Spleen, P4 ([5]; patient P4): 0.026 h
- Time-integrated activity coefficient, Urinary bladder contents, P4 ([5]; patient P4): 0.041 h
- Time-integrated activity coefficient, Blood, P5 ([5]; patient P5): 0.25 h
- Time-integrated activity coefficient, Kidneys, P5 ([5]; patient P5): 0.19 h
- Time-integrated activity coefficient, Lacrimal glands, P5 ([5]; patient P5): 0.00052 h
- Time-integrated activity coefficient, Liver, P5 ([5]; patient P5): 0.19 h
- Time-integrated activity coefficient, Remainder, P5 ([5]; patient P5): 0.73 h
- Time-integrated activity coefficient, Salivary glands, P5 ([5]; patient P5): 0.030 h
- Time-integrated activity coefficient, Spleen, P5 ([5]; patient P5): 0.019 h
- Time-integrated activity coefficient, Urinary bladder contents, P5 ([5]; patient P5): 0.16 h
- Time-integrated activity coefficient, Blood, P6 ([5]; patient P6): 0.28 h
- Time-integrated activity coefficient, Kidneys, P6 ([5]; patient P6): 0.26 h
- Time-integrated activity coefficient, Lacrimal glands, P6 ([5]; patient P6): 0.0002 h
- Time-integrated activity coefficient, Liver, P6 ([5]; patient P6): 0.31 h
- Time-integrated activity coefficient, Remainder, P6 ([5]; patient P6): 0.63 h
- Time-integrated activity coefficient, Salivary glands, P6 ([5]; patient P6): 0.017 h
- Time-integrated activity coefficient, Spleen, P6 ([5]; patient P6): 0.022 h
- Time-integrated activity coefficient, Urinary bladder contents, P6 ([5]; patient P6): 0.050 h
